Columns and labels:
ovariectomized rats [1] = experiment: Serum osteocalcin by ELISA in ovariectomized rats; assay type: in vivo, Sprague-Dawley female rats; conditions: daily drug (15 mg/kg oral, day one through day five of each week), FIG. 4
Experimental: (§1) The Sprague-Dawley female rats (100-125 gram, about 12 weeks old) were purchased from Taconic (Hudson, N.Y.). They were divided into 5 groups of 8 rats each. Four groups were ovariectomized, and one group was sham-operated. The rats were treated in the following manner: Group 1 ovariectomized rats were orally administered day one through day five of each week with 15 mg/kg tris(8-quinolinolato)gallium(III) (“daily”); Group 2 ovariectomized rats were treated with 75 mg/kg tris(8-quinolinolato)gallium(III) on day one of each week (“weekly”); Group 3 ovariectomized rats were treated with 38 mg/kg Ga(NO3)3 on day one of each week (“weekly”); Group 4 ovariectomized rats were treated with vehicle only (0.1% carboxymethylcellulose); Group 5 rats were sham-operated and were administered with vehicle only (0.1% carboxymethylcellulose). At the end of the experiment (32 days after the first administration of the compounds), the animals were anesthetized. Areal bone mineral density (BMD) and bone mineral content (BMC) were measured for the tibiae by dual-energy X-ray absorptiometry using an X-ray pixiMUS mouse densitometer.
Blood was drawn from the rats and left at room temperature for at least 30 minutes before centrifuging at 200×g for 10 minutes to separate sera. Serum was used for the measurement of serum markers including osteocalcin. Osteocalcin was measured by ELISA. […]

NFAT2 gene expression = experiment: Osteoclast marker gene expression by real time RT-PCR: NFAT2; assay type: cell-based, mouse (C57BL/6); conditions: osteoclasts treated with drug vs DMSO; FIG. 2
Experimental: (§2) Mouse bone marrow cells were flushed out from femora and tibiae of two 1-2-month old mice (C57BL/6), plated in culture medium (alpha MEM supplemented with 10% heat-inactivated fetal bovine serum, 100 international units/ml penicillin, 100 μg/ml streptomycin, and 2 mM L-glutamine) in a 100-mm dish, and incubated at 37° C. in 5% CO2 overnight. The next day, the non-adherent cells were pelleted and seeded at a density of 200,000 cells/cm^2. Then the osteoclast precursors were cultured in the presence of sRANKL (30 ng/ml) and M-CSF (30 ng/ml), and were treated with either tris(8-quinolinolato)gallium(III) or GaNO3 or DMSO (as a control). The medium was changed at day 3 to obtain mature osteoclasts at day 6. […] At the end of the treatment, the osteoclast preparations were stained for TRAP activity using a leukocyte acid phosphatase kit from Sigma and counted for TRAP-staining multinucleated cells. […] The number of cells having more than 3 nuclei was counted.
(§3) RNA was also isolated for gene expression analysis of osteoclast marker genes (TRAP, cathepsin K and NFAT2). Total RNA was extracted from osteoclasts treated with DMSO or tris(8-quinolinolato)gallium(III), and mRNAs were measured using real time RT-PCR. The relative levels of mRNAs were normalized to β-actin and then expressed as fold stimulation over DMSO-treated cells.

TRAP gene expression = experiment: Osteoclast marker gene expression by real time RT-PCR: TRAP; assay type: cell-based, mouse (C57BL/6); conditions: osteoclasts treated with drug vs DMSO; FIG. 2
Experimental: as §2, §3

[2] = test system: cathepsin K gene expression; experiment: Osteoclast marker gene expression by real time RT-PCR: cathepsin K; assay type: cell-based, mouse (C57BL/6); conditions: osteoclasts treated with drug vs DMSO; FIG. 2
Experimental: as §2, §3

ovariectomized rats [3] = experiment: Tibial bone mineral density by dual-energy X-ray absorptiometry in ovariectomized rats; assay type: in vivo, Sprague-Dawley female rats; conditions: 15 mg/kg oral, day one through day five of each week (daily), 32 days after first administration; FIG. 3
Experimental: as §1

[4] = test system: osteoclast precursors (mouse bone marrow cells); experiment: Osteoclast differentiation/formation: count of TRAP-staining multinucleated cells from osteoclast precursors cultured with sRANKL and M-CSF; assay type: cell-based, mouse (C57BL/6); conditions: 0.2 nM to 100 μM, day 6, TRAP-stained cells with more than 3 nuclei; p<0.05 compared with DMSO and GaNO3 (3.9 μM, 39 μM); FIG. 1
Experimental: Mouse bone marrow cells were flushed out from femora and tibiae of two 1-2-month old mice (C57BL/6), plated in culture medium (alpha MEM supplemented with 10% heat-inactivated fetal bovine serum, 100 international units/ml penicillin, 100 μg/ml streptomycin, and 2 mM L-glutamine) in a 100-mm dish, and incubated at 37° C. in 5% CO2 overnight. The next day, the non-adherent cells were pelleted and seeded at a density of 200,000 cells/cm^2. Then the osteoclast precursors were cultured in the presence of sRANKL (30 ng/ml) and M-CSF (30 ng/ml), and were treated with either tris(8-quinolinolato)gallium(III) or GaNO3 or DMSO (as a control). The medium was changed at day 3 to obtain mature osteoclasts at day 6. For treatment with tris(8-quinolinolato)gallium(III), a drug stock solution prepared by dissolving tris(8-quinolinolato)gallium(III) in DMSO was added to the cell cultures to arrive at final concentrations of 0.2 nM, 2 nM, 0.02 μM, 0.2 μM, 2 μM, 20 μM, 50 μM, or 100 μM. At the end of the treatment, the osteoclast preparations were stained for TRAP activity using a leukocyte acid phosphatase kit from Sigma and counted for TRAP-staining multinucleated cells. Specifically, TRAP staining was performed and five areas of each well were photographed. The number of cells having more than 3 nuclei was counted.

Question: What does the source list for `[Ga+3].[O-]c1cccc2cccnc12.[O-]c1cccc2cccnc12.[O-]c1cccc2cccnc12` [tris(8-quinolinolato)gallium(III)]?
Answer: serum osteocalcin compared to ovariectomized rats treated with vehicle only (ovariectomized rats [1]): significantly associated with reduced serum osteocalcin; NFAT2 gene expression (mRNA normalized to β-actin, fold over DMSO-treated cells) (NFAT2 gene expression): significantly inhibited; TRAP gene expression (mRNA normalized to β-actin, fold over DMSO-treated cells) (TRAP gene expression): significantly inhibited; cathepsin K gene expression (mRNA normalized to β-actin, fold over DMSO-treated cells) [2]: significantly inhibited; bone mineral density (tibiae) compared to ovariectomized untreated rats (ovariectomized rats [3]): increased bone mineral density; fusion of osteoclast precursors into multinucleated cells (osteoclast differentiation/formation) [4]: significantly inhibits

Source: patent US11135212B2, “Method for treating osteoporosis, osteopenia or low bone mineral density” (Altum Pharmaceuticals Inc., priority 2009, dated 2021)
